≈ marks a conversion by molar mass, not a printed value. Calls of active or inactive are those of the source. The calls are words filed in the database; no cut-off is given here.

This note sets out measurements from ChEMBL document CHEMBL4811298, “Discovery of novel class of histone deacetylase inhibitors as potential anticancer agents” (Bioorg Med Chem, 2021).

For series [1], the system named is MCF7. Kind of series: Induction of apoptosis in human MCF7 cells assessed as reduction in Bcl3 gene expression at 3 uM incubated for 24 hrs by whole transcriptome analysis. The format is functional, cell-based.
Series [2] deals with MCF7. Kind of series: Induction of apoptosis in human MCF7 cells assessed as downregulation of c-Myc protein expression at 1 to 3 uM measured after 48 hrs western blot analysis. The format is functional, cell-based. To be noted: dose 1-3 µM. A general note: A western blot detects proteins with antibodies after separation by electrophoresis.
For series [3], the species on record is Homo sapiens. Put plainly: Selectivity ratio of IC50 for inhibition of N-terminal GST-tagged human recombinant full length HDAC5 expressed in baculovirus-infected Sf9 cells to IC50 for inhibition of C-terminal 6XHis-tagged human recombinant full length HDAC2 (1 to 488 residues) expressed in baculovirus-infected Sf9 cells.
Series [4] is described as follows: Kinetic aqueous solubility of the compound in 2% DMSO/phosphate buffered saline at 200 uM incubated for 90 mins by UV absorbance based analysis. To be noted: read-out: Kinetic_solubility. Type of series: physicochemical.
Series [5] relates to MCF7. Kind of series: Induction of cell cycle arrest in human MCF7 cells assessed downregulation of RB1 gene expression at 3 uM incubated for 24 hrs by whole transcriptome analysis. Type of series: functional, cell-based.

In the case of `N=C(NO)c1ccc2nc(-c3cccc(-c4cn5ccccc5n4)c3)[nH]c2c1`, the outcome in series [1], in series [2] and in series [5] was Active. In series [3], the Ratio IC50 is greater than 44. For the same molecule, the solubility kinetic at 1.5 h, 200 µM in series [4] was found to be 36.1 µM (≈ 13.3 µg/mL).
